# pIC50: −log10 of the molar value.
# Molecular target: T1, MAGL (Homo sapiens, UniProt Q99685)
# T1 sequence (Q99685 1-303): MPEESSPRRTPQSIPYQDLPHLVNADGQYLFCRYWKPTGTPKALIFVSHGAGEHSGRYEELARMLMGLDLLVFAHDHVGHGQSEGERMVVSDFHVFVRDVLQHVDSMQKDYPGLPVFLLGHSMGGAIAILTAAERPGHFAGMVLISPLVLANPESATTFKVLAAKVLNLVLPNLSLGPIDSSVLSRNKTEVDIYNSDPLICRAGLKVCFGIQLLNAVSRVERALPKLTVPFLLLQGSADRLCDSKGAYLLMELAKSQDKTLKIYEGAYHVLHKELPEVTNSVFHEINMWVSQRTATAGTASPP
# Experiment: 2-AG assay (MAGL inhibitory activity, hydrolysis of 2-arachidonoylglycerol followed by mass spectrometry)
# Format: biochemical
# Details: 50 pM MAGL, 8 μM 2-arachidonoylglycerol, 15 min preincubation, 30 min incubation at RT, concentration range 12.5 μM to 0.8 pM
# Procedure, shortened: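 50 pM MAGL preincubated 15 min at RT with compound (12.5 μM to 0.8 pM) in 50 mM TRIS, 1 mM EDTA, 0.01% Tween, then 8 μM 2-arachidonoylglycerol for 30 min at RT. Arachidonic acid measured by RapidFire SPE–triple quadrupole MS in negative mode, normalised to d8-arachidonic acid.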
row,Structure (SMILES),pIC50
1,"O=C1N[C@H](CCC(=O)N2CC(c3ccc(N4CCC5(C4)CC5(F)F)nc3)C2)CO1 (stereo partly drawn) [Example 173, (4R)-4-[3-[3-[6-(2,2-Difluoro-5-azaspiro[2.4]heptan-5-yl)-3-pyridyl]azetidin-1-yl]-3-oxo-propyl]oxazolidin-2-one]",7.35
2,"O=C1N[C@H](CCC(=O)N2CC(c3ccc(Oc4nccc(C5CC5)n4)cc3)C2)CO1 [Example 80, (4R)-4-[3-[3-[4-(4-Cyclopropyl-pyrimidin-2-yl)oxyphenyl]azetidin-1-yl]-3-oxo-propyl] oxazolidin-2-one]",7.57
3,"CC1(CCC(=O)N2CC(c3ccc(C4(C(F)(F)F)CC4)cc3)C2)CCC(=O)N1 (single isomer, unassigned) [Example 16, (+)- or (−)-5-Methyl-5-[3-oxo-3-[3-[4-[1-(trifluoromethyl)cyclopropyl]phenyl]azetidin-1-yl]propyl]pyrrolidin-2-one]",6.67
4,"CC(C)(Oc1ccc(C2CN(C(=O)CCc3cnn[nH]3)C2)cc1)C(F)(F)F [Example 38, 3-(1H-1,2,3-Triazol-5-yl)-l-(3-(4-((1,1,1-trifluoro-2-methylpropan-2-yl)oxy)phenyl)azetidin-1-yl)propan-1-one]",6.63
5,"O=C1N[C@H](CCC(=O)N2CC(c3ccc(C4CC5(CCC5)C4)nc3)C2)CO1 [Example 163, (4R)-4-[3-Oxo-3-[3-(6-spiro[3.3]heptan-2-yl-3-pyridyl)azetidin-1-yl]propyl] oxazolidin-2-one]",8.05
6,"O=C1CCC(CCC(=O)N2CC(c3ccc(C4(C(F)(F)F)CC4)cc3)C2)N1 (single isomer, unassigned; (+)) [Example 6, (+)-5-[3-Oxo-3-[3-[4-[1-(trifluoromethyl)cyclopropyl]phenyl]azetidin-1-yl]propyl]pyrrolidin-2-one]",8.52
7,"O=C1N[C@H](CCC(=O)N2CC(c3ccc(N4CC(O)(C(F)(F)F)C4)nc3)C2)CO1 [Example 144, (4R)-4-[3-[3-[6-[3-Hydroxy-3-(trifluoro-methyl)azetidin-1-yl]-3-pyridyl]azetidin-1-yl]-3-oxo-propyl]oxazolidin-2-one]",6.76
8,"O=C1N[C@H](CCC(=O)N2CC(c3ccc(S(=O)(=O)C4CCCCC4)cc3)C2)CO1 [Example 77, (4R)-4-[3-[3-(4-Cyclohexylsulfonyl-phenyl)azetidin-1-yl]-3-oxo-propyl] oxazolidin-2-one]",7.46
9,"O=C1N[C@H](CCC(=O)N2CC(c3ccc(N4CC(C(F)(F)F)C4)cc3)C2)CO1 [Example 100, (4R)-4-[3-Oxo-3-[3-[4-[3-(trifluoromethyl)azetidin-1-yl]phenyl]azetidin-1-yl]propyl]oxazolidin-2-one]",8.15

# Further lines, results first:
row,pIC50,Structure (SMILES)
1,5.16,"O=C(CCCc1cnn[nH]1)N1CC2(CC(Oc3cncc(C(F)(F)F)n3)C2)C1 [Example 43, 4-(1H-Triazol-5-yl)-1-[6-[6-(trifluoromethyl)pyrazin-2-yl]oxy-2-azaspiro[3.3]heptan-2-yl]butan-1-one]"
2,5.93,"CC(C)(C)S(=O)(=O)c1ccc(C2CN(C(=O)CC[C@@H]3COC(=O)N3)C2)cn1 [Example 111, (4R)-4-[3-[3-(6-tert-Butylsulfonyl-3-pyridyl)azetidin-1-yl]-3-oxo-propyl]oxazolidin-2-one]"
3,8.00,"O=C1N[C@H](CCC(=O)N2CC(c3ccc(Oc4ccccc4Cl)nc3)C2)CO1 [Example 28, (4R)-4-[3-[3-[6-(2-Chlorophenoxy)-3-pyridyl]azetidin-1-yl]-3-oxo-propyl]oxazolidin-2-one]"
4,6.60,"O=C1N[C@@H](CCC(=O)N2CC(c3ccc(C4(C(F)(F)F)CC4)cc3)C2)CO1 [Example 21, (4S)-4-[3-Oxo-3-[3-[4-[1-(trifluoromethyl)cyclo-propyl]phenyl]azetidin-1-yl]propyl]oxazolidin-2-one]"

# — patent US11981661B2, “Heterocyclic compounds” (Hoffmann-La Roche Inc., priority 2020, dated 2024)
